Data set [1] is described as follows: Measurement of fluorescent property of compound. In kind it is physicochemical. As to conditions: 5 μM DMSO solution. The protocol:
The excitation wavelength and fluorescence wavelength of the compound were measured by a FL4500 spectrofluorometric measuring machine manufactured by Hitachi High-Technologies Corporation.

The subject of data set [2] is Prostatic cancer cells, PC-3. Nature of the data set: Cancer cell inhibitory (growth suppressive) action against prostatic cancer cells, CellTiter-Glo viable cell count. Type of data set: cell-based. The following applies: PC-3, 10 μg/mL, 24 hours. (In ATP-based viability assays light output follows the ATP content of the culture.)
In data set [3] the test system is Human chronic myelocytic leukemia cells, K562, ALDH (+) fraction (cancer stem cells). Nature of the data set: Cancer stem-cell selective inhibitory action against chronic myelocytic leukemia cells, ALDH (+) fraction. In kind it is cell-based. As to conditions: 24 hours.
For data set [4], the system named is K562 ALDH (+) cells. Nature of the data set: Cancer stem-cell selective staining, ALDH (+) cells. Type of data set: cell-based, Human. As to conditions: cells of Experimental Examples 39, 42 and 45 (1 μg/ml, cultured for 24 hours), fluorescent microscope. Here is the method:
(§1) The cells cultured for 24 hours in each of Experimental Examples 39, 42 and 45 were subjected to nuclear staining with Hoechest33342 (manufactured by Dojindo Laboratories) and a fluorescent image observed under AXIOVERT200M inverted fluorescent microscope (manufactured by Carl Zeiss) was photographed.

The subject of data set [5] is K562 ALDH (−) cells. Put plainly: Cancer stem-cell selective staining, ALDH (−) cells. In kind it is cell-based, Human. As to conditions: cells of Experimental Examples 39, 42 and 45 (1 μg/ml, cultured for 24 hours), fluorescent microscope. The protocol:
as §1

The test system of data set [6] is K562-KOr human chronic myelocytic leukemia cells, ALDH (+) fraction, transplanted to zebra young fish. Nature of the data set: Inhibitory action in cancer stem cells transplanted animal, ALDH (+) fraction. Type of data set: in vivo. The source says: (§2) From cell strain K562-KOr, which is a strain of human chronic myelocytic leukemia cells having fluorescent protein Kusabira-Orange constantly expressed, a fraction (ALDH (+)) containing 80% or more of cancer stem cells was extracted by use of a cancer stem cell marker, ALDEFLUOR reagent (manufactured by VERITAS Corporation) and FACSAria flow cytometry (manufactured by Nippon Becton, Dickinson and Company). The ALDH (+) fraction and a ALDH (−) fraction of general cancer cells were transplanted separately to zebra young fish (MieKomachi lineage, 2 days after fertilization) and the fish were raised in a 32° C. environment. Furthermore, 24 hours after transplantation, Compound (16) was added to breeding water so as to obtain a final concentration of […] and fish were raised for two days in a 32° C. environment.
(§3) Cells transplanted to the zebra young fish were observed under MZ16F fluorescent stereoscopic microscope (manufactured by Leica Microsystems) and a fluorescent image of the cells after 24 hours was photographed and then fluorescent intensity was quantified.
As a reference, the fluorescent intensity of cells, which were cultured in the same operation method as above in a medium containing a 0.1% DMSO solution in place of Compound (16), was used.
The numerical value of fluorescent intensity was obtained from a fluorescent image taken in the same manner as in Experimental Example 74 except that Compound (16) of Experimental Example 74 was changed to Imatinib.
. The inhibition rate herein was obtained according to the expression: 100×(1−F1/F0), where the fluorescent intensity of cells when a test substance was added is represented by F1, and the fluorescent intensity of cells when a reference substance (DMSO) was added is represented by F0.

In data set [7] the test system is K562-KOr human chronic myelocytic leukemia cells, ALDH (−) fraction, transplanted to zebra young fish. Nature of the data set: Inhibitory action in cancer cells transplanted animal, ALDH (−) fraction. Type of data set: in vivo. The following applies: 0.5 μm in breeding water added 24 hours after transplantation, fluorescent intensity.
Description: as §2, §3
As a reference, the fluorescent intensity of cells, which were cultured in the same operation method as above in a medium containing a 0.1% DMSO solution in place of Compound (16), was used. […]

The test system of data set [8] is Human pancreas cancer cells, KLM-1. Nature of the data set: Cancer cell inhibitory (growth suppressive) action against pancreatic cancer cells, CellTiter-Glo viable cell count. As to conditions: KLM-1, 10 μg/mL, 24 hours.
Description: Human pancreas cancer cells, KLM-1, were pre-cultured in RPMI1640 medium containing 10% FBS at 37° C. in a 5% CO2 ambient. Thereafter, 4,000 cells were seeded per well of a 96-well plate and further cultured for 24 hours. […] The cultured cells were analyzed for viable cell count according to CellTiter-Glo Luminescent Cell Viability Assay (manufactured by Promega KK.).
Evaluation of cancer cell inhibition against the pancreatic cancer cells (KLM-1) (growth suppression) was made based on the following criteria. Note that the growth rate used in Examples refers to the rate (expressed by percentage) of viable cell count after culture relative to the number of cells at the initiation of cell culture.

Structures are written as SMILES.

In data set [1], `CCCCCN1/C(=C\C=C\c2oc3ccccc3[n+]2CCCCC)Oc2ccccc21` [Compound 16] returned an Excitation wavelength λex of 474 nm and a Fluorescence wavelength λem of 509 nm. For the same compound, in data set [2], the “Cancer cell growth rate (%)” value stood at 8.4% and the “Evaluation (cancer cell growth rate)” value is “A (Cancer cell growth rate is less than 20%)”. In data set [3] (K562, 0.05 μg/ml), the “ALDH(+) Superiority evaluation” value is “B (The value of the growth rate of ALDH (+)/the growth rate of ALDH (−) is 0.8 or more and less than 0.95)”; the “ALDH(+)/ALDH(−)” value was determined as 0.87. Also, in data set [3] (K562, 0.5 μg/ml), the “ALDH(+) Superiority evaluation” value is given as “A (The value of the growth rate of ALDH (+)/the growth rate of ALDH (−) is less than 0.8)” and the “ALDH(+)/ALDH(−)” value stood at 0.70. For the same compound, in data set [3] (K562, 1 μg/ml), the “ALDH(+) Superiority evaluation” value is recorded as “A (The value of the growth rate of ALDH (+)/the growth rate of ALDH (−) is less than 0.8)” and the “ALDH(+)/ALDH(−)” value was 0.47. Also, the “ratio of ALDH (+) cells stained” value in data set [4] is reported as 99.5%. For the same compound, the “ratio of ALDH (−) cells stained” value in data set [5] was 18.6%. Besides, the “Growth suppression rate (ALDH(+) versus ALDH(−))” value in data set [6] (zebra young fish transplanted with K562-KOr fractions) is listed as “ALDH(+) is high”. Further, the “ALDH(+) inhibition rate 100×(1−F1/F0)” value in data set [6] (zebra young fish, 0.5 μm in breeding water added 24 hours after transplantation, fluorescent intensity) came to 95.0. Moreover, in data set [7], the “ALDH(−) inhibition rate 100×(1−F1/F0)” value is 82.0. In data set [8], the “Cancer cell growth rate (%)” value was found to be 2.0% and the “Evaluation (cancer cell growth rate)” value is “A (Cancer cell growth rate is less than 20%)”.
